According to ChEMBL document CHEMBL4507293 (2021):

How the values were obtained:
[1] = target: Mitogen-activated protein kinase 9 (Homo sapiens) (UniProt P45984); settings: Compound concentration 100.0 nM
[2] = system: Receptor-type tyrosine-protein kinase FLT3 (Homo sapiens), P36888 [UNDEFINED MUTATION]; settings: Compound concentration 100.0 nM
[3] = target: Serine/threonine-protein kinase LATS1 (Homo sapiens) (UniProt O95835); settings: Compound concentration 100.0 nM
[4] = target: Mitogen-activated protein kinase 7 (Homo sapiens) (UniProt Q13164); settings: Compound concentration 100.0 nM
[5] = target: Glycogen synthase kinase-3 alpha (Homo sapiens) (UniProt P49840); settings: Compound concentration 100.0 nM
[6] = target: Phosphatidylinositol 4-kinase beta (Homo sapiens) (UniProt Q9UBF8); settings: Compound concentration 100.0 nM
[7] = system: Proto-oncogene tyrosine-protein kinase receptor Ret (Homo sapiens), P07949 [V804L]; settings: Compound concentration 100.0 nM
[8] = target: Discoidin domain-containing receptor 2 (Homo sapiens) (UniProt Q16832); settings: Compound concentration 100.0 nM
[9] = target: Mitotic checkpoint serine/threonine-protein kinase BUB1 (Homo sapiens) (UniProt O43683); settings: Compound concentration 100.0 nM
[10] = target: Aurora kinase C (Homo sapiens) (UniProt Q9UQB9); settings: Compound concentration 100.0 nM
[11] = target: Serine/threonine-protein kinase SIK3 (Homo sapiens) (UniProt Q9Y2K2); settings: Compound concentration 100.0 nM
[12] = target: cAMP-dependent protein kinase catalytic subunit beta (Homo sapiens) (UniProt P22694); settings: Compound concentration 100.0 nM
[13] = target: Cyclin-dependent kinase 8 (Homo sapiens) (UniProt P49336); settings: Compound concentration 100.0 nM
[14] = target: Ephrin type-A receptor 1 (Homo sapiens) (UniProt P21709); settings: Compound concentration 100.0 nM
[15] = target: Ephrin type-B receptor 6 (Homo sapiens) (UniProt O15197); settings: Compound concentration 100.0 nM
[16] = target: Wee1-like protein kinase (Homo sapiens) (UniProt P30291); settings: Compound concentration 100.0 nM
Chain of Wee1-like protein kinase (Homo sapiens) (P30291 whole entry, looked up): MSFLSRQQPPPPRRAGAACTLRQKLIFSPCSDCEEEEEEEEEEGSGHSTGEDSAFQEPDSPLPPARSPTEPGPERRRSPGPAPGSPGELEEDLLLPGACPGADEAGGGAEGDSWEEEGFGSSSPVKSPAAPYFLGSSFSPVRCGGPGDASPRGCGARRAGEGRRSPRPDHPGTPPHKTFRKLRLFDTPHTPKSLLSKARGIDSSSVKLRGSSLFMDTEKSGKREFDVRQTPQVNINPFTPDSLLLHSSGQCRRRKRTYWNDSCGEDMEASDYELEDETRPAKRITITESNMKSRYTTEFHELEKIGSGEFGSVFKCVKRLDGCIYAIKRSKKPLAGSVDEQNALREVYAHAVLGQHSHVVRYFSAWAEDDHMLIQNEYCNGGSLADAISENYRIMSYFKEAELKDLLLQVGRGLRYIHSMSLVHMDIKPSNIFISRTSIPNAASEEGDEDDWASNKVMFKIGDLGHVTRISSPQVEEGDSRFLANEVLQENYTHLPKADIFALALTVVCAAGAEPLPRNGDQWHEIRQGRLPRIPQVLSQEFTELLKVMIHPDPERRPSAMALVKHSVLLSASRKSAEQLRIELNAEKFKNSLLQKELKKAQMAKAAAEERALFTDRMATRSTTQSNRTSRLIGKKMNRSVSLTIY

[17] = target: Glycogen synthase kinase-3 beta (Homo sapiens) (UniProt P49841); settings: Compound concentration 100.0 nM
[18] = target: Tyrosine-protein kinase Lck (Homo sapiens) (UniProt P06239); settings: Compound concentration 100.0 nM
Chain of Tyrosine-protein kinase Lck (Homo sapiens) (P06239 2-509 limits assumed): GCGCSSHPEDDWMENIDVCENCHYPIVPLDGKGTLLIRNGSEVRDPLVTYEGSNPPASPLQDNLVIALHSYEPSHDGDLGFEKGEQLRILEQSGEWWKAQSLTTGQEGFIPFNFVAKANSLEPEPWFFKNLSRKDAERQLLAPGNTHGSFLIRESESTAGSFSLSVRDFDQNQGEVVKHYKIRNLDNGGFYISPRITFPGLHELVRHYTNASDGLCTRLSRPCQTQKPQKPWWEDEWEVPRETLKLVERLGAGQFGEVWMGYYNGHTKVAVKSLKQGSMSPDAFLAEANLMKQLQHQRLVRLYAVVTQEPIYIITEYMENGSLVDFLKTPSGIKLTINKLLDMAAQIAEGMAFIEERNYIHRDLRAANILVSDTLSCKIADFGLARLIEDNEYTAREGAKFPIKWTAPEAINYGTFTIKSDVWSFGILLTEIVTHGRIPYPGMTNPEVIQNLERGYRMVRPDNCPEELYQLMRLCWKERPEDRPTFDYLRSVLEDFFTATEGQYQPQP

[19] = target: Homeodomain-interacting protein kinase 3 (Homo sapiens) (UniProt Q9H422); settings: Compound concentration 100.0 nM
[20] = target: Serine/threonine-protein kinase 3 (Homo sapiens) (UniProt Q13188); settings: Compound concentration 100.0 nM
[21] = target: Mitogen-activated protein kinase kinase kinase 14 (Homo sapiens) (UniProt Q99558); settings: Compound concentration 100.0 nM
[22] = target: Mitogen-activated protein kinase kinase kinase 6 (Homo sapiens) (UniProt O95382); settings: Compound concentration 100.0 nM
[23] = target: Ribosomal protein S6 kinase alpha-2 (Homo sapiens) (UniProt Q15349); settings: Compound concentration 100.0 nM
[24] = system: Phosphatidylinositol 4,5-bisphosphate 3-kinase catalytic subunit alpha isoform (Homo sapiens), P42336 [M1043I]; settings: Compound concentration 100.0 nM
Chain of Phosphatidylinositol 4,5-bisphosphate 3-kinase catalytic subunit alpha isoform (Homo sapiens), P42336 [M1043I] (P42336 whole entry M1043I, canonical isoform): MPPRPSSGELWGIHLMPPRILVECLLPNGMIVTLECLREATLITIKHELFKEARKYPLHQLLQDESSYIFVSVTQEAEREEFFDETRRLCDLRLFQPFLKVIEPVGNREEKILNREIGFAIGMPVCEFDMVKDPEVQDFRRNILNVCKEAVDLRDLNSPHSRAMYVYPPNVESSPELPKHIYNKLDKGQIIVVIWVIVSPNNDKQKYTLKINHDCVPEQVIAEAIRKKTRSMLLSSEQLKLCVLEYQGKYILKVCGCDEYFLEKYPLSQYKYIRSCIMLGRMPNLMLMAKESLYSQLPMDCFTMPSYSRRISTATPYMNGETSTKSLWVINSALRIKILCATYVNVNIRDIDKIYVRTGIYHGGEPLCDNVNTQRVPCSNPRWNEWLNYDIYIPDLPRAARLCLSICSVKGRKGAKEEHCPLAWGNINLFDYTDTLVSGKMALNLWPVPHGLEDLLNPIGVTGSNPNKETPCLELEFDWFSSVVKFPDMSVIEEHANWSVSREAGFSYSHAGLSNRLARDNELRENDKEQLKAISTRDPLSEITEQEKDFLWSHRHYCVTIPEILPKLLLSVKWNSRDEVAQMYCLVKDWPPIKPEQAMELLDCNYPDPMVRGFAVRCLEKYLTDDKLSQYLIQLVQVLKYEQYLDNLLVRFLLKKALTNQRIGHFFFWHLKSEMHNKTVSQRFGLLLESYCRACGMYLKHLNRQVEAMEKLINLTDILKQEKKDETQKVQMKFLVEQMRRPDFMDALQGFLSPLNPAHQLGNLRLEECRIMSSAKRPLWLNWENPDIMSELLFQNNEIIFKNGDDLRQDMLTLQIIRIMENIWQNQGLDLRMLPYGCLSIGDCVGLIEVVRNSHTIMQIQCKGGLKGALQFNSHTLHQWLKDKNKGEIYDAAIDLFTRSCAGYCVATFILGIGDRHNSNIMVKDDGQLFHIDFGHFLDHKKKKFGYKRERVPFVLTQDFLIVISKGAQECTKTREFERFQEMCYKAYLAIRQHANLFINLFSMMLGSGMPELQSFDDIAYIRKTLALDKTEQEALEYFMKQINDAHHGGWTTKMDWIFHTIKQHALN

[25] = target: Activin receptor type-1B (Homo sapiens) (UniProt P36896); settings: Compound concentration 100.0 nM
[26] = target: Alpha-1B adrenergic receptor (Homo sapiens) (UniProt P35368); settings: Compound concentration 10.0 uM
[27] = target: SRSF protein kinase 3 (Homo sapiens) (UniProt Q9UPE1); settings: Compound concentration 100.0 nM
[28] = target: Casein kinase I isoform gamma-3 (Homo sapiens) (UniProt Q9Y6M4); settings: Compound concentration 100.0 nM
[29] = target: SNF-related serine/threonine-protein kinase (Homo sapiens) (UniProt Q9NRH2); settings: Compound concentration 100.0 nM
[30] = target: Serine/threonine-protein kinase OSR1 (Homo sapiens) (UniProt O95747); settings: Compound concentration 100.0 nM
[31] = target: Activated CDC42 kinase 1 (Homo sapiens) (UniProt Q07912); settings: Compound concentration 100.0 nM
[32] = system: Tyrosine-protein kinase ABL1 (Homo sapiens), P00519 [F317L]; settings: Compound concentration 100.0 nM
[33] = target: D(1A) dopamine receptor (Homo sapiens) (UniProt P21728); settings: Compound concentration 10.0 uM
[34] = target: Cytoplasmic tyrosine-protein kinase BMX (Homo sapiens) (UniProt P51813); settings: Compound concentration 100.0 nM
Chain of Cytoplasmic tyrosine-protein kinase BMX (Homo sapiens) (P51813 whole entry): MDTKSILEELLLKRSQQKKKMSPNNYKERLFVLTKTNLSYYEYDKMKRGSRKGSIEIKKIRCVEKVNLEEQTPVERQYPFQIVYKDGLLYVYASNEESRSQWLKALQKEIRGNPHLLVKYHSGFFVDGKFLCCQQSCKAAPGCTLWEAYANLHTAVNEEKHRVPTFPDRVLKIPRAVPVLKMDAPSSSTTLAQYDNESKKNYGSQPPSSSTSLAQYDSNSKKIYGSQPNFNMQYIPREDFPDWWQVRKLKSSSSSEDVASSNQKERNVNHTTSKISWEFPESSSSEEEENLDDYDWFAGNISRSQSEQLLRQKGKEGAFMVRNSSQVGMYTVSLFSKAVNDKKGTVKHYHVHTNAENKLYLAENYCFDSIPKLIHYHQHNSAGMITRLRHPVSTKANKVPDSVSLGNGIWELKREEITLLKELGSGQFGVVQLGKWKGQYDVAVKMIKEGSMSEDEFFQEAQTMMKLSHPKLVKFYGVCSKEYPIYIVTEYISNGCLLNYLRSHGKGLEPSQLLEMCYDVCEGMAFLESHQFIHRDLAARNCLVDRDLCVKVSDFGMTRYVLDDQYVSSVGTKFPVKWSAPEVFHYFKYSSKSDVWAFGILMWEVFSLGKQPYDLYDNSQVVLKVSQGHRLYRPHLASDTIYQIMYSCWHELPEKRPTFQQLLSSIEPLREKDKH

[35] = target: Receptor tyrosine-protein kinase erbB-2 (Homo sapiens) (UniProt P04626); settings: Compound concentration 100.0 nM
[36] = target: Serine/threonine-protein kinase Nek2 (Homo sapiens) (UniProt P51955); settings: Compound concentration 100.0 nM
Chain of Serine/threonine-protein kinase Nek2 (Homo sapiens) (P51955 whole entry): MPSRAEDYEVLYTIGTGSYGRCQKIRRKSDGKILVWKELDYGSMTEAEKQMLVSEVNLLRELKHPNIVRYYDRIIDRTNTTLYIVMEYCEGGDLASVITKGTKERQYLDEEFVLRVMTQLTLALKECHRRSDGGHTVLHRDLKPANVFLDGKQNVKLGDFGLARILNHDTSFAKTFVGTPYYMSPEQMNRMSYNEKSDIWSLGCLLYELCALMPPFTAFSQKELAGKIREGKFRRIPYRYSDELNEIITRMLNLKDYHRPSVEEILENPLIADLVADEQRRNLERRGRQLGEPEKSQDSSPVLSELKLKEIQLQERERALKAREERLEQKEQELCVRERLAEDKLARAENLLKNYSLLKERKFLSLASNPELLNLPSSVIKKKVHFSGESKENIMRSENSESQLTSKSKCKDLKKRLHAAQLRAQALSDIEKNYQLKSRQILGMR

[37] = target: Calcium/calmodulin-dependent protein kinase type IV (Homo sapiens) (UniProt Q16566); settings: Compound concentration 100.0 nM
[38] = system: Phosphatidylinositol 4,5-bisphosphate 3-kinase catalytic subunit alpha isoform (Homo sapiens), P42336 [E545A]; settings: Compound concentration 100.0 nM
[39] = target: Tyrosine-protein kinase TXK (Homo sapiens) (UniProt P42681); settings: Compound concentration 100.0 nM
[40] = target: Ephrin type-A receptor 2 (Homo sapiens) (UniProt P29317); settings: Compound concentration 100.0 nM
[41] = target: Angiopoietin-1 receptor (Homo sapiens) (UniProt Q02763); settings: Compound concentration 100.0 nM
[42] = target: 3-phosphoinositide-dependent protein kinase 1 (Homo sapiens) (UniProt O15530); settings: Compound concentration 100.0 nM
[43] = target: Sigma non-opioid intracellular receptor 1 (Homo sapiens) (UniProt Q99720); settings: Compound concentration 10.0 uM
Chain of Sigma non-opioid intracellular receptor 1 (Homo sapiens) (Q99720 whole entry): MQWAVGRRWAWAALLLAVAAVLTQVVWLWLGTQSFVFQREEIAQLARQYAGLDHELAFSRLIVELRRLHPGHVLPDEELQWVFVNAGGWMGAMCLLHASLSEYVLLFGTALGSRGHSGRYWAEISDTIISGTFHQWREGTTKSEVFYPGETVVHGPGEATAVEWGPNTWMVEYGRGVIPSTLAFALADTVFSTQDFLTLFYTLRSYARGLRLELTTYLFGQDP

[44] = target: Eukaryotic translation initiation factor 2-alpha kinase 1 (Homo sapiens) (UniProt Q9BQI3); settings: Compound concentration 100.0 nM
Chain of Eukaryotic translation initiation factor 2-alpha kinase 1 (Homo sapiens) (Q9BQI3 whole entry): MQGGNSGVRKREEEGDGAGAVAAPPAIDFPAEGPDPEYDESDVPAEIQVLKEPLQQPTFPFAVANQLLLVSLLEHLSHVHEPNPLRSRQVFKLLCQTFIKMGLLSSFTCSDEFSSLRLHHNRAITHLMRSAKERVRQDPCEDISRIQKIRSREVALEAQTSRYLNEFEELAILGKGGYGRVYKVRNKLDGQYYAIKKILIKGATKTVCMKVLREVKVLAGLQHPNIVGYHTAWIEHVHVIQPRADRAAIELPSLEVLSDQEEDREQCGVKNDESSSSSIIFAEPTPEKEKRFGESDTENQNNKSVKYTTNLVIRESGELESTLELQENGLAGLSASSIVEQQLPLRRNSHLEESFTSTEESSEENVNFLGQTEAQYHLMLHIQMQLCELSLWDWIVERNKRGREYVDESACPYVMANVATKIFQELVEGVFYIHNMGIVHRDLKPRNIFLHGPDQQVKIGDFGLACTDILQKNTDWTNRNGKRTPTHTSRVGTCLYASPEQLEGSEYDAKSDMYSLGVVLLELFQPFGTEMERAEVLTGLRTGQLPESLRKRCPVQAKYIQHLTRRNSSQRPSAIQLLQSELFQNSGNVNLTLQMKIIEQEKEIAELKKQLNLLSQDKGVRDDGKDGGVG

[45] = target: Serine/threonine-protein kinase PLK3 (Homo sapiens) (UniProt Q9H4B4); settings: Compound concentration 100.0 nM
Chain of Serine/threonine-protein kinase PLK3 (Homo sapiens) (Q9H4B4 whole entry, looked up): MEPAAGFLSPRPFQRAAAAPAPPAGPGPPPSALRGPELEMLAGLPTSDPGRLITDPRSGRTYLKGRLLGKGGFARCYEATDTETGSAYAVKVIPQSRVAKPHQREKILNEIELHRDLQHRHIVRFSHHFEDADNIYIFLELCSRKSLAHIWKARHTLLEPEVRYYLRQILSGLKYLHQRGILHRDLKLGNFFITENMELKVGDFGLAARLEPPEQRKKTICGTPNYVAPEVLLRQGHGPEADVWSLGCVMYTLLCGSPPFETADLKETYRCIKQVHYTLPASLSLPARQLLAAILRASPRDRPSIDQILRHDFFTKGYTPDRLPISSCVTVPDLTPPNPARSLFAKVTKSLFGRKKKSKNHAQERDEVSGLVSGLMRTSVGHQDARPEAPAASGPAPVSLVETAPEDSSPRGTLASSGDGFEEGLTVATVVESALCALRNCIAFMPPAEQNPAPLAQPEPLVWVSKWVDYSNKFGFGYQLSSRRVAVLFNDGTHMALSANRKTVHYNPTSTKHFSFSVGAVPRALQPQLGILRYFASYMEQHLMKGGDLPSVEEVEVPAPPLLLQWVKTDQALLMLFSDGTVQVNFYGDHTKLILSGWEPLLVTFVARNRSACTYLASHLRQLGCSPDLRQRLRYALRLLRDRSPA

CC(C)CC(=O)N1CCc2nc(-c3ccc(Br)cc3)nc(N(C)Cc3ccccc3)c2C1 [THPP-1-NC]
inactive: residual activity [1] 72% | residual activity [2] 68% | residual activity [3] 67% | residual activity [4] 100% | residual activity [5] 100% | residual activity [6] 100% | residual activity [7] 100% | residual activity [8] 97% | residual activity [9] 78% | residual activity [10] 100% | residual activity [11] 100% | residual activity [12] 82% | residual activity [13] 82% | residual activity [14] 100% | residual activity [15] 91% | residual activity [16] 100% | residual activity [17] 100% | residual activity [18] 100% | residual activity [19] 100% | residual activity [20] 100% | residual activity [21] 100% | residual activity [22] 100% | residual activity [23] 100% | residual activity [24] 53% | residual activity [25] 89% | inhibition [26] 17.5% | residual activity [27] 79% | residual activity [28] 100% | residual activity [29] 84% | residual activity [30] 100% | residual activity [31] 99% | residual activity [32] 100% | inhibition [33] 18.5% | residual activity [34] 100% | residual activity [35] 82% | residual activity [36] 100% | residual activity [37] 100% | residual activity [38] 100% | residual activity [39] 100% | residual activity [40] 100% | residual activity [41] 100% | residual activity [42] 100% | inhibition [43] 49.4% | residual activity [44] 100% | residual activity [45] 100%

COCCOc1nc(-c2ccc(Cl)nc2)nc2c1CN(C(=O)c1ncn3ccccc13)CC2 [THPP-1]
inactive: residual activity [1] 76% | residual activity [2] 64% | residual activity [3] 70% | residual activity [4] 100% | residual activity [5] 100% | residual activity [6] 100% | residual activity [7] 100% | residual activity [8] 100% | residual activity [9] 82% | residual activity [10] 95% | residual activity [11] 100% | residual activity [12] 73% | residual activity [13] 100% | residual activity [14] 100% | residual activity [15] 78% | residual activity [16] 100% | residual activity [17] 100% | residual activity [18] 100% | residual activity [19] 100% | residual activity [20] 100% | residual activity [21] 100% | residual activity [22] 100% | residual activity [23] 100% | residual activity [24] 88% | residual activity [25] 86% | inhibition [26] 10.8% | residual activity [27] 66% | residual activity [28] 100% | residual activity [29] 79% | residual activity [30] 100% | residual activity [31] 100% | residual activity [32] 100% | inhibition [33] -8.34% | residual activity [34] 100% | residual activity [35] 82% | residual activity [36] 100% | residual activity [37] 100% | residual activity [38] 100% | residual activity [39] 100% | residual activity [40] 100% | residual activity [41] 100% | residual activity [42] 90% | inhibition [43] 38.1% | residual activity [44] 100% | residual activity [45] 100%
